Drawing on US20240002354A1, “ANTIDIABETIC COMPOUNDS AND COMPOSITIONS” (REZUBIO PHARMACEUTICALS CO., LTD, priority 2020, published 2024), this text covers EC50 for 26 compounds.

Broadly, the EC50 is the concentration that produces a half-maximal response. Lower therefore signals greater potency.

T1 sequence (O14842 whole entry): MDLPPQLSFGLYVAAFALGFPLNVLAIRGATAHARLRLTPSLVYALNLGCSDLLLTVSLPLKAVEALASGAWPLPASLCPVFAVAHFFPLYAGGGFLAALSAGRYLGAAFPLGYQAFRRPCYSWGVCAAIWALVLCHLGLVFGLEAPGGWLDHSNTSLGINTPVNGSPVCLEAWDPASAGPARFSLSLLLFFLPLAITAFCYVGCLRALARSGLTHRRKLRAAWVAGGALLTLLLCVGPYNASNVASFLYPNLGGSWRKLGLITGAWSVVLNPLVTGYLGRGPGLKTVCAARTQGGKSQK

This assay concerns the target T1, GPR40 (Homo sapiens, UniProt O14842).
T1 construct: expressed in transfected cells
The assay is described as follows: IP1 accumulation assay (Cisbio IP-One HTRF) in HEK293 cells stably expressing GPR40. The settings on record: HEK293 cells stably expressing GPR40, 37° C. for 2 hours, % Effect relative to AMG-1638 positive control. The format is cell-based. The protocol: IP1 accumulation assay was used to evaluate the potency of compounds. HEK293 cells stably expressing GPR40 were cultured in 5% CO2 incubator (ThermoFisher) in maintenance media (Dulbecco's modified Eagle's medium with 4.5 g/L of glucose, 10% fetal bovine serum, 100 μg/mL Hygromycin, and Penicillin (100 U/mL)/Streptomycin (100 μg/mL)) till 100% confluency. Cells were harvested freshly, spun down at 300×g for 5 min, and resuspended in pre-warmed 1× stimulant buffer from Cisbio IP-One HTRF Detection kit (Cisbio). Cell density was adjusted to 2.0×10^6 cells/mL. DMSO was used as blank control and AMG-1638 (CAS #: 1142214-62-7) as positive control. Compounds were prepared at 10 mM in DMSO and 5 nL of 3× serially diluted compounds (10 concentrations) were added to each well of the 384-LDV assay plate (Corning) by using ECHO 550 (Labcyte). Five μL of cells in suspension were transferred into each well by using Multidrop Combi Reagent Dispenser (ThermoFisher). Assay plate was then sealed and incubated at 37° C. for 2 hours. IP-d2 reagent and anti-IP1 reagent were prepared following the manual (Cisbio). Five μL of IP1-d2 and then 5 μL of anti-IP1 antibody was added to each well sequentially. Assay plate was incubated at room temperature for 60 min and then read at 665 nm/615 nm on an Envision plate reader (PerkinElmer). The ratio of values obtained at 665 nm and 615 nm was used for calculation of IP1 accumulation: % Effect=(Ratiosample−Ratioblank)/(RatioAMG-1638−Ratioblank)×100. Dose curve was fitted and EC50 of each compound was calculated by using XLFit.
Background: TR-FRET usually uses a lanthanide donor and a delayed reading to cut background.
`C[C@H](C(=O)O)[C@H](c1ccc2c(c1)O[C@@H](C1CCN(Cc3cc(CN=[N+]=[N-])ccc3OC(F)(F)F)CC1)CC2)C1CC1` [Compound 201] had a concentration giving a half-maximal response (EC50) of 1 to 50 nM.
To `C#CCOc1cc(COc2cccc([C@H](CC)CC(=O)O)c2)ccc1-c1cc(OC)ccc1F` [Compound No. 211] belongs 1000 to 5000 nM; to `CC[C@H](CC(=O)O)c1cccc(OCc2ccc(-c3cc(OC)ccc3F)c(OCc3cn(CCCCCCCCCCCCCCCCCC(=O)O)nn3)c2)c1` [Compound No. 212], at least 5000 nM; to `CCCCCCn1cc(COc2cc(COc3cccc([C@H](CC)CC(=O)O)c3)ccc2-c2cc(OC)ccc2F)nn1` [Compound No. 213], 1000 to 5000 nM.
The compound `COc1ccc(F)c(-c2ccc(COc3cccc([C@@H](CC(=O)O)C4CC4)c3)cc2C(C)(C)N=[N+]=[N-])c1` [Compound No. 216, (S)-3-(3-((2-(2-azidopropan-2-yl)-2′-fluoro-5′-methoxy-[1,1′-biphenyl]-4-yl)methoxy)phenyl)-3-cyclopropylpropanoic acid] displayed an EC50 of 1 to 50 nM.
To `C#CC(C)(C)c1cc(COc2cccc([C@@H](CC(=O)O)C3CC3)c2)ccc1-c1cc(OC)ccc1F` [Compound No. 217, (S)-3-cyclopropyl-3-(3-((2′-fluoro-5′-methoxy-2-(2-methylbut-3-yn-2-yl)-[1,1′-biphenyl]-4-yl)methoxy)phenyl)propanoic acid] belongs 1 to 50 nM.
To `CCCCCCc1cn(C(C)(C)c2cc(COc3cccc([C@@H](CC(=O)O)C4CC4)c3)ccc2-c2cc(OC)ccc2F)nn1` [Compound No. 218, (S)-3-cyclopropyl-3-(3-((2′-fluoro-2-(2-(4-hexyl-1H-1,2,3-triazol-1-yl)propan-2-yl)-5′-methoxy-[1,1′-biphenyl]-4-yl)methoxy)phenyl)propanoic acid] belongs 250 to 1000 nM; to `CCCCCCn1cc(C(C)(C)c2cc(COc3cccc([C@@H](CC(=O)O)C4CC4)c3)ccc2-c2cc(OC)ccc2F)nn1` [Compound No. 219, (S)-3-cyclopropyl-3-(3-{2′-fluoro-2-[1-(1-hexyl-1H-[1,2,3]triazol-4-yl)-1-methyl-ethyl]-5′-methoxy-biphenyl-4-ylmethoxy}-phenyl)-propionic acid], 250 to 1000 nM.
Compound `COc1ccc(F)c(-c2ccc(COc3cccc([C@@H](CC(=O)O)C4CC4)c3)cc2C(C)(C)n2cc(CCCCCCCCCCCCCCCCCC(=O)O)nn2)c1` [Compound No. 220, (S)-18-(1-(2-(4-((3-(2-carboxy-1-cyclopropylethyl)phenoxy)methyl)-2′-fluoro-5′-methoxy-[1,1′-biphenyl]-2-yl)propan-2-yl)-1H-1,2,3-triazol-4-yl)octadecanoic acid] displayed a concentration for a half-maximal effect (EC50) of 1000 to 5000 nM.
`COc1ccc(F)c(-c2ccc(COc3cccc([C@@H](CC(=O)O)C4CC4)c3)cc2C(C)(C)c2cn(CCCCCCCCCCCCCCCCCC(=O)O)nn2)c1` [Compound No. 221, (S)-18-[4-(1-{4-[3-(2-Carboxy-1-cyclopropyl-ethyl)-phenoxymethyl]-2′-fluoro-5′-methoxy-biphenyl-2-yl}-1-methyl-ethyl)-[1,2,3]triazol-1-yl]-octadecanoic acid] came in with a concentration for a half-maximal effect (EC50) of 250 to 1000 nM.
Turning to `COc1ccc(F)c(-c2ccc(COc3cccc([C@@H](CC(=O)O)C4CC4)c3)cc2C(C)(C)CN=[N+]=[N-])c1` [Compound No. 224], the EC50 was in the range of 1 to 50 nM.
Under `CCCCCCc1cn(CC(C)(C)c2cc(COc3cccc([C@@H](CC(=O)O)C4CC4)c3)ccc2-c2cc(OC)ccc2F)nn1` [Compound No. 225, (S)-3-cyclopropyl-3-(3-{2′-fluoro-2-[2-(4-hexyl-[1,2,3]triazol-1-yl)-1,1-dimethyl-ethyl]-5′-methoxy-biphenyl-4-ylmethoxy}-phenyl)-propionic acid] stands 50 to 250 nM; under `COc1ccc(F)c(-c2ccc(COc3cccc([C@@H](CC(=O)O)C4CC4)c3)cc2C(C)(C)Cn2cc(CCCCCCCCCCCCCCCCCC(=O)O)nn2)c1` [Compound No. 226, (S)-18-(1-(2-(4-((3-(2-carboxy-1-cyclopropylethyl)phenoxy)methyl)-2′-fluoro-5′-methoxy-[1,1′-biphenyl]-2-yl)-2-methylpropyl)-1H-1,2,3-triazol-4-yl)octadecanoic acid], 50 to 250 nM.
Under `COC(=O)CCCCCCCCCCCCCCCCCc1cn(CC(C)(C)c2cc(COc3cccc([C@@H](CC(=O)O)C4CC4)c3)ccc2-c2cc(OC)ccc2F)nn1` [Compound No. 227, (S)-3-cyclopropyl-3-(3-((2′-fluoro-5′-methoxy-2-(1-(4-(18-methoxy-18-oxooctadecyl)-1H-1,2,3-triazol-1-yl)-2-methylpropan-2-yl)-[1,1′-biphenyl]-4-yl)methoxy)phenyl)propanoic acid] stands at least 5000 nM; under `C#CCOCC(C)(C)c1cc(COc2cccc([C@@H](CC(=O)O)C3CC3)c2)ccc1-c1cc(OC)ccc1F` [Compound No. 228, (S)-3-cyclopropyl-3-(3-((2′-fluoro-5′-methoxy-2-(2-methyl-1-(prop-2-yn-1-yloxy)propan-2-yl)-[1,1′-biphenyl]-4-yl)methoxy)phenyl)propanoic acid], 50 to 250 nM; under `CCCCCCn1cc(COCC(C)(C)c2cc(COc3cccc([C@@H](CC(=O)O)C4CC4)c3)ccc2-c2cc(OC)ccc2F)nn1` [Compound No. 229, (S)-3-cyclopropyl-3-(3-((2′-fluoro-2-(1-((1-hexyl-1H-1,2,3-triazol-4-yl)methoxy)-2-methylpropan-2-yl)-5′-methoxy-[1,1′-biphenyl]-4-yl)methoxy)phenyl) propanoic acid], 250 to 1000 nM.
To `COc1ccc(F)c(-c2ccc(COc3cccc([C@@H](CC(=O)O)C4CC4)c3)cc2C(C)(C)COCc2cn(CCCCCCCCCCCCCCCCCC(=O)O)nn2)c1` [Compound No. 230] belongs 250 to 1000 nM.
As to `COC(=O)CCCCCCCCCCCCCCCCCn1cc(COCC(C)(C)c2cc(COc3cccc([C@@H](CC(=O)O)C4CC4)c3)ccc2-c2cc(OC)ccc2F)nn1` [Compound No. 231, (S)-3-cyclopropyl-3-(3-((2′-fluoro-5′-methoxy-2-(1-((1-(18-methoxy-18-oxooctadecyl)-1H-1,2,3-triazol-4-yl)methoxy)-2-methylpropan-2-yl)-[1,1′-biphenyl]-4-yl)methoxy)phenyl)propanoic acid], the EC50 was at least 5000 nM.
Under `COc1ccc(F)c(-c2ccc(COc3cccc([C@@H](CC(=O)O)C4CC4)c3)cc2C(OCCCCN=[N+]=[N-])C(C)(C)C)c1` (stereo partly drawn) [Compound No. 232, (3S)-3-(3-((2-(1-(4-azidobutoxy)-2,2-dimethylpropyl)-2′-fluoro-5′-methoxy-[1,1′-biphenyl]-4-yl)methoxy)phenyl)-3-cyclopropylpropanoic acid] stands 1 to 50 nM; under `CCCCCCc1cn(CCCCCOC(c2cc(COc3cccc([C@@H](CC(=O)O)C4CC4)c3)ccc2-c2cc(OC)ccc2F)C(C)(C)C)nn1` (some centres unmarked) [Compound No. 233], 1 to 50 nM.
To `COc1ccc(F)c(-c2ccc(COc3cccc([C@@H](CC(=O)O)C4CC4)c3)cc2C(OCCCCCn2cc(CCCCCCCCCCCCCCCCCC(=O)O)nn2)C(C)(C)C)c1` (some centres unmarked) [Compound No. 234] belongs 250 to 1000 nM; to `COC(=O)CCCCCCCCCCCCCCCCCc1cn(CCCCCOC(c2cc(COc3cccc([C@@H](CC(=O)O)C4CC4)c3)ccc2-c2cc(OC)ccc2F)C(C)(C)C)nn1` (some centres unmarked) [Compound No. 235], at least 5000 nM.
To `COc1ccc(F)c(-c2ccc(COc3cccc([C@@H](CC(=O)O)C4CC4)c3)cc2C(OC)C(C)(C)CN=[N+]=[N-])c1` (stereo partly drawn) [Compound No. 236, (3S)-3-(3-((2-(3-azido-1-methoxy-2,2-dimethylpropyl)-2′-fluoro-5′-methoxy-[1,1′-biphenyl]-4-yl)methoxy)phenyl)-3-cyclopropylpropanoic acid] belongs 1 to 50 nM; to `COc1ccc(F)c(-c2ccc(COc3cccc([C@@H](CC(=O)O)C4CC4)c3)cc2CC(C)(C)CN=[N+]=[N-])c1` [Compound No. 237, (S)-3-(3-((2-(3-azido-2,2-dimethylpropyl)-2′-fluoro-5′-methoxy-[1,1′-biphenyl]-4-yl)methoxy)phenyl)-3-cyclopropylpropanoic acid], 1 to 50 nM; to `CCCCCCn1cc(-c2ccc(OC(F)(F)F)c(CN3CCC([C@H]4CCc5ccc([C@H](C6CC6)[C@H](C)C(=O)O)cc5O4)CC3)c2)nn1` [compound 187, (2S,3R)-3-cyclopropyl-3-((R)-2-(1-(5-(1-hexyl-1H-1,2,3-triazol-4-yl)-2-(trifluoro-methoxy)benzyl)piperidin-4-yl)chroman-7-yl)-2-methylpropanoic acid], 50 to 250 nM.
The compound `CCCCCCc1cn(-c2ccc(OC(F)(F)F)c(CN3CCC([C@H]4CCc5ccc([C@H](C6CC6)[C@H](C)C(=O)O)cc5O4)CC3)c2)nn1` [compound 188, (2S,3R)-3-cyclopropyl-3-((R)-2-(1-(5-(4-hexyl-1H-1,2,3-triazol-1-yl)-2-(trifluoro-methoxy)benzyl)piperidin-4-yl)chroman-7-yl)-2-methylpropanoic acid] had an EC50 of 1 to 50 nM.
